These results are taken from US5789412A, “Piperazides derived from arylpiperazine, processes for their preparation, their use as medicaments and pharmaceutical compositions comprising them” (Pierre Fabre Medicament, priority 1994, dated 1998).

pEC50, pKi: −log10 of the molar value. Counter-ions that a name gives are not always drawn. Like-named read-outs stand apart in the source and are kept apart here.

As a reminder, the pKi is the negative decadic logarithm of the Ki, by convention in mol/L. For orientation: pEC50 means the EC50 on a negative log10 scale, so that one unit is a factor of ten.

For one experiment, the target named is T1, human 5HT1Dα receptor (Homo sapiens, UniProt P28221).
T1 construct: expressed in transfected cells
Briefly: Binding to human 5HT1Dα receptor ([3H]-5CT displacement). The method, then:
(§1) Human 5HT1Dα and 5HT1Dβ receptors were cloned according to the sequences published by M. Hamblin and M. Metcalf, Mol. Pharmacol., 40, 143 (1991) and Weinshenk et al., Proc. Natl. Acad. Sci. 89, 3630 (1992).
(§2) Transitory transfection and permanent transfection of the genes for these receptors was carried out in cell lines Cos-7 and CHO-K1 using an electroporator.
(§3) The binding of the derivatives of the present invention with the human 5HT1Dα, 5HT1Dβ and 5HT1A receptors was studied according to the method described by P. Pauwels and C. Palmier (Neuropharmacology, 33, 67, 1994).
(§4) The incubation media for these binding measurements comprise 0.4 ml of cell membrane preparation, 0.05 ml of a tritiated ligand [[3H]-5CT (final concentration: 2 nM) for the 5HT1Dα and 5HT1Dβ receptors and [3H]-8OH-DPAT (final concentration: 1 nM) for the 5HT1A receptor] and 0.05 ml of the test molecule (final concentrations of 0.1 nM to 1000 nM) or 10 μM (final concentration) of serotonin (5HT1Dα and 5HT1Dβ) or 1 μM (final concentration) of spiroxatrine (5HT1A).

For experiment [1], the target named is T2, human 5HT1Dβ receptor (Homo sapiens, UniProt P28222).
T2 construct: expressed in transfected cells; host or cells: CHO-K1
Kind of experiment: Binding to human 5HT1Dβ receptor ([3H]-5CT displacement). The method, then: as §1, §2, §3, §4

The target in the next experiment is T3, human 5HT1A receptor (Homo sapiens, UniProt P08908).
T3 construct: host or cells: HeLa HA7
T3 sequence (P08908 1-422): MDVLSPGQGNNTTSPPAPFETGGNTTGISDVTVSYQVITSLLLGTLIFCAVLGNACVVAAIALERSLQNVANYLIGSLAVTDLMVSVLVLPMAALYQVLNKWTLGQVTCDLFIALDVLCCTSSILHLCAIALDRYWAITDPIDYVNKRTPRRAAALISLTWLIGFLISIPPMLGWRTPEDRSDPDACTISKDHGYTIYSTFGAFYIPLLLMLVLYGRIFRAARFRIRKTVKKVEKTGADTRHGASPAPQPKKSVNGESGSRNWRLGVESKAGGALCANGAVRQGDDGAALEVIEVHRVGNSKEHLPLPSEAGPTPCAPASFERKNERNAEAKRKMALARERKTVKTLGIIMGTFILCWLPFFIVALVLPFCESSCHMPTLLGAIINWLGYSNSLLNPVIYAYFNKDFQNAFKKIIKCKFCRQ
Briefly: Binding to human 5HT1A receptor ([3H]-8OH-DPAT displacement, HeLa HA7 cell line). The settings on record: read-out: 5HT1A Ki (affinity for the receptors concerned). The source says: The binding of the derivatives of the present invention with the human 5HT1Dα, 5HT1Dβ and 5HT1A receptors was studied according to the method described by P. Pauwels and C.

In experiment [2] the target is T2, human 5HT1Dβ receptor. Briefly: Inhibition of forskolin-stimulated cyclic AMP formation mediated by human 5HT1Dβ receptor in transfected CHO-K1 cells (intrinsic agonist activity). The class given is cell-based. The method, then:
as §1, §2
Inhibition of the formation of cyclic AMP (stimulated by forskolin) mediated by the human 5HT1Dβ receptor was studied in CHO-K1 cells transfected with the receptor according to the technique described beforehand for the 5HT1B receptor (P. Pauwels and C. Palmier, Neuropharmacology, 33, 67, 1994).
**Intrinsic agonist acitivity (inhibition of the formation of cyclic AMP
induced by forskolin in CHO--K1 cells).

Where [3] appears, read: [3H]-5CT 2 nM, cell membrane preparation, read-out: 5HT1Dα Ki (affinity for the receptors concerned).
The mark [4] stands for this setting: [3H]-5CT 2 nM, cell membrane preparation, read-out: 5HT1Dβ Ki (affinity for the receptors concerned).
The mark [5] stands for this setting: [3H]-8OH-DPAT 1 nM, HeLa HA7 cell line.
Where [6] appears, read: CHO-K1 cells, forskolin stimulated, read-out: 5HT1Dβ EC50 (intrinsic agonist activity, inhibition of the formation of cyclic AMP induced by forskolin).

T2 sequence (P28222 whole entry): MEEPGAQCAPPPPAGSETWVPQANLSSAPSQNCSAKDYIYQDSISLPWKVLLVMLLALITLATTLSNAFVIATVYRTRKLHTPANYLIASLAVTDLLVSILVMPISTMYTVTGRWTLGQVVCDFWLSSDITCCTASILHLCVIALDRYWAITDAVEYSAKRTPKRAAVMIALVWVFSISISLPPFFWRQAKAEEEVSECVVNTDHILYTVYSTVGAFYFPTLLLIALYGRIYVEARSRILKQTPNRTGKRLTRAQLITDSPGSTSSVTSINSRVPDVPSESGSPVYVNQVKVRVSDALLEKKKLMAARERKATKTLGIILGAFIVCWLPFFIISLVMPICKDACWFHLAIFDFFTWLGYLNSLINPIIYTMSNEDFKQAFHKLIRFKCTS
T1 sequence (P28221 whole entry): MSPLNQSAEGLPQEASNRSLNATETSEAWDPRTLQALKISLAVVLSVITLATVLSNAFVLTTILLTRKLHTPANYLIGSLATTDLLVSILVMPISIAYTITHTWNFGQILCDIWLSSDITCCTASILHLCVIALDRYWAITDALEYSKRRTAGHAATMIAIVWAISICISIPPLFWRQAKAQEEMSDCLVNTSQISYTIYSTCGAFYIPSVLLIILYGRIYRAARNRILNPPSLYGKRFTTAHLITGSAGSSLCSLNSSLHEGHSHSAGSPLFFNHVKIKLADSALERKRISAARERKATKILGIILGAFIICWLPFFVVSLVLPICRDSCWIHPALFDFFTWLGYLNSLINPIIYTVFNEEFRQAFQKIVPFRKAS

Consider `COc1ccc(N2CCN(C(=O)Nc3ccc(OC)c(N4CCN(C)CC4)c3)CC2)cc1` [Example 3, fumarate], for which the values for the pKi on human 5HT1Dα receptor (setting [3]), at human 5HT1Dβ receptor [1] (setting [4]) and on human 5HT1A receptor (setting [5]) were 6.64, 8.08 and 6.00, respectively. Also, on human 5HT1Dβ receptor [2] (setting [6]), the negative-log EC50 (pEC50) is < 6.00.

Take `CN1CCN(c2cccc3ccc(OC(=O)N4CCN(c5ccccc5)CC4)cc23)CC1` [Example 19, 8-(4-Methylpiperazin-1-yl)naphthalen-2-yl 4-phenylpiperazin-1-yloate]: the pKi was 8.55 at human 5HT1Dα receptor, 9.30 on human 5HT1Dβ receptor [1] and 7.80 on human 5HT1A receptor (setting [5]). For the same compound, the pEC50 at human 5HT1Dβ receptor [2] was < 6.00.

On to `COc1ccc(NC(=O)N2CCN(c3ccc4c(c3)OCO4)CC2)cc1N1CCN(C)CC1` [Example 7, N-[4-Methoxy-3-(4-methylpiperazin-1-yl)phenyl]-4-(3,4-methylenedioxy)phenylpiperazin-1-ylamide difumarate], for which the pKi at human 5HT1Dα receptor (setting [3]) is 6.85; at human 5HT1Dβ receptor [1] (setting [4]) it was 8.09; at human 5HT1A receptor (setting [5]), 6.10. For the same compound, the pEC50 on human 5HT1Dβ receptor [2] (setting [6]) is < 6.00.

Consider `COc1ccc(NC(=O)N2CCN(c3ccccc3C)CC2)cc1N1CCN(C)CC1` [Example 1, N-[4-methoxy-3-(4-methylpiperazin-1-yl)phenyl]-4-(o-tolylpiperazin-1-ylamide fumarate], for which the figures for the pKi on human 5HT1Dα receptor (setting [3]), on human 5HT1Dβ receptor [1] (setting [4]) and at human 5HT1A receptor (setting [5]) were 7.32, 8.64 and 6.40, respectively. In addition, on human 5HT1Dβ receptor [2] (setting [6]), the pEC50 is < 6.00.

On to `COc1ccc(NC(=O)N2CCN(c3ccccc3OC)CC2)cc1N1CCN(C)CC1` [Example 2, N-[4-Methoxy-3-(4-methylpiperazin-1-yl)phenyl]-4-(o-methoxyphenyl)piperazin-1-ylamide fumarate], for which the pKi on human 5HT1Dα receptor (setting [3]) is 7.17; at human 5HT1Dβ receptor [1] (setting [4]) it was 8.70. In addition, the pEC50 at human 5HT1Dβ receptor [2] (setting [6]) is < 6.00.

For `COc1ccc(NC(=O)N2CCN(c3cccc(C)c3C)CC2)cc1N1CCN(C)CC1` [Example 5, fumarate], the pKi is 7.38 on human 5HT1Dα receptor (setting [3]), 8.92 at human 5HT1Dβ receptor [1] (setting [4]) and 6.25 at human 5HT1A receptor (setting [5]). Further, the pEC50 at human 5HT1Dβ receptor [2] (setting [6]) was < 6.00.

As for `COc1ccc(NCC(=O)N2CCN(c3ccccc3C)CC2)cc1N1CCN(C)CC1` [Example 12, 2-[4-Methoxy-3-(4-methylpiperazin-1-yl)phenylamino]-1-(4-o-tolylpiperazin-1-yl)ethanone fumarate], the pKi at human 5HT1Dα receptor (setting [3]) is 6.38; on human 5HT1Dβ receptor [1] (setting [4]) it was 7.55; on human 5HT1A receptor, 5.52. At human 5HT1Dβ receptor [2] (setting [6]), the pEC50 was < 6.00.

Take `COc1ccc(NC(=O)N2CCN(c3ccccc3C#N)CC2)cc1N1CCN(C)CC1` [Example 8, N-[4-Methoxy-3-(4-methylpiperazin-1-yl)phenyl]-4-(o-cyanophenyl)piperazin-1-ylamide fumarate]: the pKi on human 5HT1Dα receptor (setting [3]) was 6.92; at human 5HT1Dβ receptor [1] (setting [4]), 7.95; on human 5HT1A receptor (setting [5]), 6.15. For the same compound, on human 5HT1Dβ receptor [2] (setting [6]), the pEC50 was < 6.00.

For the compound `COc1ccc(NC(=O)N2CCN(c3ccc([N+](=O)[O-])cc3)CC2)cc1N1CCN(C)CC1` [Example 6, N-[4-[4-Methoxy-3-(4-methylpiperazin-1-yl)phenyl]-4-(p-nitrophenyl)piperazin-1-ylamide fumarate], the pKi was 6.94 on human 5HT1Dα receptor (setting [3]), 8.30 on human 5HT1Dβ receptor [1] (setting [4]) and 6.34 on human 5HT1A receptor (setting [5]). Moreover, at human 5HT1Dβ receptor [2] (setting [6]), the negative logarithm of the EC50 (pEC50) was < 6.00.

Take `Cc1ccccc1N1CCN(C(=O)COc2ccc3cccc(N4CCN(C)CC4)c3c2)CC1` [Example 16, 2-[8-(4-Methylpiperazin-1-yl)naphthalen-2-yloxy]-1-(4-o-tolylpiperazin-1-yl)ethanone]: the pKi on human 5HT1Dα receptor (setting [3]) is 9.17; on human 5HT1Dβ receptor [1] (setting [4]) it was 9.55; on human 5HT1A receptor (setting [5]) it was 7.30. At human 5HT1Dβ receptor [2] (setting [6]), the pEC50 was < 6.00.
